In patent US8299086B2, “Pyrimidine derivatives” (Actelion Pharmaceuticals Ltd., priority 2007, dated 2012):
pEC50: −log10 of the molar value.

Molecular target: recombinant human S1P1 receptor (Homo sapiens, UniProt P21453)
Test: GTPγS assay to determine EC50 values
Format: biochemical
Details: 35S-GTPγS binding, membranes of CHO cells expressing recombinant human S1P1 receptor
Method: GTPγS assay to determine EC50 values
GTPγS binding assays are performed in 96 well microtiter plates (Nunc, 442587) in a final volume of 200 μl, using membrane preparations of CHO cells expressing recombinant human S1P1 receptor. Assay conditions are 20 mM Hepes (Fluka, 54461), 100 mM NaCl (Fluka, 71378), 5 mM MgCl2 (Fluka, 63064), 0.1% BSA (Calbiochem, 126609), 1 μM GDP (Sigma, G-7127), 2.5% DMSO (Fluka, 41644), […] ^35S-GTPγS (Amersham Biosciences, SJ1320). The pH is 7.4. Test compounds are dissolved and diluted in 100% DMSO and pre-incubated at room temperature for 30 min in 150 μl of the above assay buffer, in the absence of ^35S-GTPγS. After addition of 50 μl of ^35S-GTPγS, the assay is incubated for 1 h at rt. The assay is terminated by transfer of the reaction mixture to a Multiscreen plate (Millipore, MAHFC1H60) using a cell harvester from Packard Biosciences, and the plates are washed with ice-cold 10 mM Na2HPO4/NaH2PO4 (70%/30%), dried, sealed at the bottom and, after addition of 25 μl MicroScint20 (Packard Biosciences, order#6013621), sealed on the top. Membrane-bound ^35S-GTPγS is measured with a TopCount from Packard Biosciences.
EC50 is the concentration of agonist inducing 50% of the maximal specific ^35S-GTPγS binding. Specific binding is determined by subtracting non-specific binding from maximal binding. Maximal binding is the amount of cpm bound to the Multiscreen plate in the presence of 10 μM of S1P. Non-specific binding is the amount of binding in the absence of an agonist in the assay.

Chain of recombinant human S1P1 receptor (P21453 whole entry): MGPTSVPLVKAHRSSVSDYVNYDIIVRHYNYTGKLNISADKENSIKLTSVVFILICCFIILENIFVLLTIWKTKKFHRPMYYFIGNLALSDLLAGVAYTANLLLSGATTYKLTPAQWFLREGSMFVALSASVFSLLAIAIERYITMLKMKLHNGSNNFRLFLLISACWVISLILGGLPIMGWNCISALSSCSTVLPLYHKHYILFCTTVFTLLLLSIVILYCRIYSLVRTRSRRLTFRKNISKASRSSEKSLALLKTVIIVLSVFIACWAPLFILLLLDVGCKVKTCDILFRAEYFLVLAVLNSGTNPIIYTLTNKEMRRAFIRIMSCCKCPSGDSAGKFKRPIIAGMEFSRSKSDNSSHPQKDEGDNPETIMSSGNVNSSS

SMILES | pEC50 (pH 7.4) | pEC50
Cc1cc(-c2nc(-c3cc(C)c(OC[C@@H](O)CNC(=O)CO)c(Cl)c3)no2)nc(OC(C)C)n1 [Example 54, N—((S)-3-{2-chloro-4-[5-(2-isopropoxy-6-methyl-pyrimidin-4-yl)-[1,2,4]oxadiazol-3-yl]-6-methyl-phenoxy}-2-hydroxy-propyl)-2-hydroxy-acetamide] | 9.00 | –
CCc1cc(-c2noc(-c3cc(CC(C)C)nc(NC)n3)n2)cc(C)c1OC[C@@H](O)CNC(=O)CO [Example 35, N—((S)-3-{2-ethyl-4-[5-(6-isobutyl-2-methylamino-pyrimidin-4-yl)-[1,2,4]oxadiazol-3-yl]-6-methyl-phenoxy}-2-hydroxy-propyl)-2-hydroxy-acetamide] | 8.86 | –
CCN(CC)c1nc(C)cc(-c2nc(-c3ccc(CC(=O)N4CC(C(=O)O)C4)cc3)no2)n1 [Example 131] | 7.35 | –
CCc1cc(-c2nnc(-c3cc(C)nc(OCC(C)C)n3)s2)cc(C)c1OC[C@@H](O)CO [Example 99] | 5.43 | –
CCc1cc(-c2noc(-c3cc(CC(C)C)nc(OC)n3)n2)cc(C)c1OC[C@@H](O)CNC(=O)CO [Example 43, N—((S)-3-{2-ethyl-4-[5-(6-isobutyl-2-methoxy-pyrimidin-4-yl)-[1,2,4]oxadiazol-3-yl]-6-methyl-phenoxy}-2-hydroxy-propyl)-2-hydroxy-acetamide] | 9.01 | –
Cc1cc(-c2nc(-c3cc(C)c(OCC(O)CNC(=O)CO)c(C)c3)no2)nc(NC(C)C)n1 (racemic) [Example 7, rac-N-(3-{4-[5-(2-Isopropylamino-6-methyl-pyrimidin-4-yl)-[1,2,4]oxadiazol-3-yl]-2,6-dimethyl-phenoxy}-2-hydroxy-propyl)-2-hydroxy-acetamide] | 9.06 | –
Cc1cc(-c2nc(-c3cc(C)c(OCC(O)CO)c(C)c3)no2)nc(NC(C)C)n1 (racemic) [Example 19, rac-3-{4-[5-(2-Isopropylamino-6-methyl-pyrimidin-4-yl)-[1,2,4]oxadiazol-3-yl]-2,6-dimethyl-phenoxy}-propane-1,2-diol] | 8.64 | –
CCc1cc(-c2noc(-c3cc(C)nc(N(CC)CC)n3)n2)cc(C)c1OCCNCCO [Example 103] | 7.14 | –
CCc1cc(-c2noc(-c3cc(C)nc(NCC(C)C)n3)n2)cc(C)c1OC[C@@H](O)CNC(=O)CO [Example 2, N—((S)-3-{2-Ethyl-4-[5-(2-isobutylamino-6-methyl-pyrimidin-4-yl)-[1,2,4]oxadiazol-3-yl]-6-methyl-phenoxy}-2-hydroxy-propyl)-2-hydroxy-acetamide] | 8.92 | –
CCOc1nc(CC)cc(-c2nc(-c3cc(C)c(OC[C@@H](O)CNC(=O)CO)c(CC)c3)no2)n1 [Example 41, N—((S)-3-{4-[5-(2-ethoxy-6-ethyl-pyrimidin-4-yl)-[1,2,4]oxadiazol-3-yl]-2-ethyl-6-methyl-phenoxy}-2-hydroxy-propyl)-2-hydroxy-acetamide] | 8.35 | –
COc1cc(-c2noc(-c3cc(C)nc(NC(C)C)n3)n2)cc(C)c1OC[C@@H](O)CO [Example 78, (S)-3-{4-[5-(2-isopropylamino-6-methyl-pyrimidin-4-yl)-[1,2,4]oxadiazol-3-yl]-2-methoxy-6-methyl-phenoxy}-propane-1,2-diol] | 8.24 | –
CCc1cc(-c2nc(-c3cc(C)nc(N(C)CC(C)C)n3)no2)cc(C)c1OC[C@@H](O)CNC(=O)CO [Example 86, (S)—N-[3-(2-Ethyl-4-{3-[2-(isobutyl-methyl-amino)-6-methyl-pyrimidin-4-yl]-[1,2,4]oxadiazol-5-yl}-6-methyl-phenoxy)-2-hydroxy-propyl]-2-hydroxy-acetamide] | 8.24 | –
CCc1cc(-c2noc(-c3cc(C)nc(NC(C)C)n3)n2)cc(C)c1CCC(=O)NCCC(=O)O [Example 134] | 8.70 | –
CCNc1nc(C)cc(-c2nc(-c3cc(C)c(OCC(O)CNC(=O)CO)c(C)c3)no2)n1 (racemic) [Example 4, rac-N-(3-{4-[5-(2-Ethylamino-6-methyl-pyrimidin-4-yl)-[1,2,4]oxadiazol-3-yl]-2,6-dimethyl-phenoxy}-2-hydroxy-propyl)-2-hydroxy-acetamide] | 9.34 | –
CCc1cc(-c2nnc(-c3cc(C)nc(OC(C)C)n3)o2)cc(C)c1OC[C@@H](O)CNC(=O)CO [Example 89] | 7.40 | –
CCc1cc(-c2noc(-c3cc(C)nc(N(CC)CC)n3)n2)cc(C)c1OC(CO)CO [Example 100, 2-{4-[5-(2-Diethylamino-6-methyl-pyrimidin-4-yl)-[1,2,4]oxadiazol-3-yl]-2-ethyl-6-methyl-phenoxy}-propane-1,3-diol] | 8.29 | –

SMILES | pEC50 (pH 7.4) | pEC50
CCc1cc(-c2noc(-c3cc(C)nc(N(CC)CC)n3)n2)cc(C)c1OCCN1CCC(C(=O)O)C1 (stereo not shown) [Example 109] | 8.08 | –
CCc1cc(-c2noc(-c3cc(C)nc(NC4CC4)n3)n2)cc(C)c1OC[C@@H](O)CO [Example 63, (S)-3-{4-[5-(2-cyclopropylamino-6-methyl-pyrimidin-4-yl)-[1,2,4]oxadiazol-3-yl]-2-ethyl-6-methyl-phenoxy}-propane-1,2-diol] | 9.60 | –
CCc1cc(-c2noc(-c3cc(C)nc(N(CC)CC)n3)n2)cc(C)c1OCCNC(=O)CN [Example 112] | 7.90 | –
Cc1cc(-c2nc(-c3ccc(C(O)CN)cc3)no2)nc(NC(C)C)n1 (racemic) [Example 144, rac-2-Amino-1-{4-[5-(2-isopropylamino-6-methyl-pyrimidin-4-yl)-[1,2,4]oxadiazol-3-yl]-phenyl}-ethanol] | 7.10 | –
Cc1cc(-c2nc(-c3cc(C)c(OC[C@@H](O)CO)c(Cl)c3)no2)nc(OC(C)C)n1 [Example 81, (S)-3-{2-chloro-4-[5-(2-isopropoxy-6-methyl-pyrimidin-4-yl)-[1,2,4]oxadiazol-3-yl]-6-methyl-phenoxy}-propane-1,2-diol] | 8.13 | –
CCN(CC)c1nc(C)cc(-c2nc(-c3ccc(CC(=O)N4CCC[C@H]4C(=O)O)cc3)no2)n1 [Example 132] | – | < 5.00
Cc1cc(-c2nc(-c3cc(C)c(OC[C@@H](O)CNC(=O)CO)c(C)c3)no2)nc(OCC(C)C)n1 [Example 46] | 8.43 | –
CCN(CC)c1nc(C)cc(-c2nc(-c3ccc(CCNS(C)(=O)=O)cc3)no2)n1 [Example 128, N-(2-{4-[5-(2-Diethylamino-6-methyl-pyrimidin-4-yl)-[1,2,4]oxadiazol-3-yl]-phenyl}-ethyl)-methanesulfonamide] | 7.13 | –
CCc1cc(-c2noc(-c3cc(C)nc(N(CC)CC)n3)n2)cc(C)c1OC[C@@H](O)CNCCC(=O)O [Example 126, 3-((S)-3-{4-[5-(2-diethylamino-6-methyl-pyrimidin-4-yl)-[1,2,4]oxadiazol-3-yl]-2-ethyl-6-methyl-phenoxy}-2-hydroxy-propylamino)-propionic acid] | 8.85 | –
CCCOc1nc(C)cc(-c2nc(-c3cc(C)c(OCC(O)CNC(=O)CO)c(C)c3)no2)n1 (racemic) [Example 14, rac-N-(3-{4-[5-(6-Methyl-2-propoxy-pyrimidin-4-yl)-[1,2,4]oxadiazol-3-yl]-2,6-dimethyl-phenoxy}-2-hydroxy-propyl)-2-hydroxy-acetamide] | 7.59 | –
CCc1cc(-c2noc(-c3cc(C)nc(NC(C)C)n3)n2)cc(C)c1CCC(=O)NCC(O)CO (stereo not shown) [Example 140] | 7.90 | –
CCc1cc(-c2noc(-c3cc(C)nc(NC4CC4)n3)n2)cc(C)c1OC[C@@H](O)CNC(=O)CO [Example 31, N—((S)-3-{4-[5-(2-cyclopropylamino-6-methyl-pyrimidin-4-yl)-[1,2,4]oxadiazol-3-yl]-2-ethyl-6-methyl-phenoxy}-2-hydroxy-propyl)-2-hydroxy-acetamide] | 9.77 | –
Cc1cc(-c2nc(-c3ccc(CC(O)CNCCO)cc3)no2)nc(NC(C)C)n1 (stereo not shown) [Example 154] | 6.48 | –
Cc1cc(-c2nc(-c3ccc(CC(O)CO)cc3)no2)nc(NC(C)C)n1 (racemic) [Example 149, rac-3-{4-[5-(2-Isopropylamino-6-methyl-pyrimidin-4-yl)-[1,2,4]oxadiazol-3-yl]-phenyl}-propane-1,2-diol] | 7.60 | –
CCc1cc(-c2noc(-c3cc(C)nc(N(CC)CC)n3)n2)cc(C)c1OC[C@@H](O)CNS(=O)(=O)CC [Example 117] | 7.65 | –
